# How the values were obtained:
# [1] = Pharmacokinetics of 5-MeO-DMT and bufotenine after inhalation, LC-MS/MS; assay type: in vivo, human
# Experimental: Blood samples were obtained at 1; 2; 4; 7; 10; 15; 20; 30; 45 min and 1; 1.5; 2; 3; 4 hours after administration.
# PK parameters were generated by algebraic analysis of the concentration versus time plots for each individual. The analysis was carried out using the software Phoenix WinNonlin 6.3.
# [2] = test system: Escherichia coli (WP2 uvrA pKM101); assay: Bacterial mutation test, Escherichia coli; assay type: cell-based; details: up to 5000 pg/plate, with and without S-9
# From the text: These conditions included treatments at concentrations up to […] (the maximum recommended concentration according to current regulatory guidelines), in the absence and in the presence of a rat liver metabolic activation system (S-9).
# human plasma proteins = assay: 5-MeO-DMT binding to human plasma proteins, high throughput dialysis; assay type: in vitro ADME; details: 4-hour dialysis
# Experimental: Following evaluation of the equilibration data, plasma protein binding was investigated at nominal concentrations of 0.1, 1 and 10 μM using a 4-hour dialysis time. […]
# [3] = 5-MeO-DMT, 5-MIAA and bufotenine in urine, serum and breastmilk of a lactating PPD patient, LC-MS/MS
# Experimental: The second patients was lactating, and, per the clinical trial protocol, breastmilk samples were collected pre-dosing and at multiple timepoints after administration of the last dose. […] Similar analyses were carried out on patient serum and urine samples.
# [4] = 1.0 hrs after last dose (6 mg then 12 mg 5-MeO-DMT)
structure (smiles),measurement,setting,value
COc1ccc2[nH]cc(CCN(C)C)c2c1 [5-MeO-DMT],plasma concentration as % of Cmax,"[1]; 10 minutes after administration, 6-18 mg",≤ 10%
same,plasma concentration as % of Cmax,"[1]; after 2 hours, 6-18 mg",≤ 1%
same,detectability in plasma,"[1]; after 3 hours, 6-18 mg",no longer detectable
same,"5-MeO-DMT still present, % Cmax","[1]; after about 1 hour, healthy volunteers and PPD patients",less than 10%
same,accumulation upon repeated administration,[1]; repeat within 1 to 4 hours,No accumulation
same,induction of mutation,[2],did not induce mutation
same,Free Fraction in human plasma,human plasma proteins; 0.1 μM,78.7%
same,Free Fraction in human plasma,human plasma proteins; 1 μM,77.3%
same,Free Fraction in human plasma,human plasma proteins; 10 μM,87.0%
same,Breastmilk concentration,[3]; [4],2167.0 pg/mL
same,Serum concentration,[3]; [4],0.1329 ng/mL
same,Breastmilk concentration,[3]; 2.5 hrs after last dose,560.6 pg/mL
same,Serum concentration,[3]; 2.5 hrs after last dose,BLQ (BLQ: Below limit of quantification. The lower limit of quantification is 25 pg/ml for both 5-MeO-DMT and 5-MIAA in both serum and breastmilk; it is 25 pg/ml in urine for 5-MeO-DMT and 250 pg/ml for 5-MIAA in urine.)
same,Urine concentration,[3]; 2.5 hrs after last dose,566.7 pg/mL
same,Breastmilk concentration,[3]; 8.5 hrs after last dose,42.1 pg/mL
same,Urine concentration,[3]; 8.5 hrs after last dose,BLQ (BLQ: Below limit of quantification. The lower limit of quantification is 25 pg/ml for both 5-MeO-DMT and 5-MIAA in both serum and breastmilk; it is 25 pg/ml in urine for 5-MeO-DMT and 250 pg/ml for 5-MIAA in urine.)
same,Breastmilk concentration,[3]; 24.0 hrs after last dose,did not detect any 5-MeO-DMT and BLG
same,Serum concentration,[3]; 24.0 hrs after last dose,BLQ (BLQ: Below limit of quantification. The lower limit of quantification is 25 pg/ml for both 5-MeO-DMT and 5-MIAA in both serum and breastmilk; it is 25 pg/ml in urine for 5-MeO-DMT and 250 pg/ml for 5-MIAA in urine.)
same,Urine concentration,[3]; 24.0 hrs after last dose,BLQ (BLQ: Below limit of quantification. The lower limit of quantification is 25 pg/ml for both 5-MeO-DMT and 5-MIAA in both serum and breastmilk; it is 25 pg/ml in urine for 5-MeO-DMT and 250 pg/ml for 5-MIAA in urine.)
same,Breastmilk concentration,[3]; 120.0 hrs after last dose,BLQ (BLQ: Below limit of quantification. The lower limit of quantification is 25 pg/ml for both 5-MeO-DMT and 5-MIAA in both serum and breastmilk; it is 25 pg/ml in urine for 5-MeO-DMT and 250 pg/ml for 5-MIAA in urine.)
same,Serum concentration,[3]; 120.0 hrs after last dose,BLQ (BLQ: Below limit of quantification. The lower limit of quantification is 25 pg/ml for both 5-MeO-DMT and 5-MIAA in both serum and breastmilk; it is 25 pg/ml in urine for 5-MeO-DMT and 250 pg/ml for 5-MIAA in urine.)
same,Urine concentration,[3]; 120.0 hrs after last dose,BLQ (BLQ: Below limit of quantification. The lower limit of quantification is 25 pg/ml for both 5-MeO-DMT and 5-MIAA in both serum and breastmilk; it is 25 pg/ml in urine for 5-MeO-DMT and 250 pg/ml for 5-MIAA in urine.)
same,Breastmilk concentration,[3]; −24.0 hrs (pre-dosing),BLQ (BLQ: Below limit of quantification. The lower limit of quantification is 25 pg/ml for both 5-MeO-DMT and 5-MIAA in both serum and breastmilk; it is 25 pg/ml in urine for 5-MeO-DMT and 250 pg/ml for 5-MIAA in urine.)
same,Serum concentration,[3]; −24.0 hrs (pre-dosing),BLQ (BLQ: Below limit of quantification. The lower limit of quantification is 25 pg/ml for both 5-MeO-DMT and 5-MIAA in both serum and breastmilk; it is 25 pg/ml in urine for 5-MeO-DMT and 250 pg/ml for 5-MIAA in urine.)
same,Urine concentration,[3]; −24.0 hrs (pre-dosing),BLQ (BLQ: Below limit of quantification. The lower limit of quantification is 25 pg/ml for both 5-MeO-DMT and 5-MIAA in both serum and breastmilk; it is 25 pg/ml in urine for 5-MeO-DMT and 250 pg/ml for 5-MIAA in urine.)

# — US20240108602A1, “TREATMENT OF MENTAL DISORDERS” (GH Research Ireland Limited, priority 2022, published 2024)
